In US20100035287A1, “Secreted Luciferase Fluorescent Protein Conjugate Nucleic Acid Construct and Uses Thereof” (THE GENERAL HOSPITAL CORPORATION, priority 2006, published 2010):

Assays:
[1] = tested on: ER stress (Gluc secretion), 293T cells; test: Real-time monitoring of ER stress with Gluc (Gluc activity in conditioned medium); type: cell-based, human
Procedure: (§1) Fold induction is calculated with respect to the control non-infected/non-treated cells. […] The mean±S.E.M. is presented on the graphs (n=3), with *p<0.01 as compared to the non-treated cells and as calculated by the student's t-Test. NS=not significant
Gaussia luciferase for monitoring of ER stress in real-time. Splicing of the XBP-1 mRNA to sXBP1 and expression of BiP protein are generally used as biomarkers for ER stress.

BiP, 293T cells = test: Western blot for BiP; type: cell-based, human; settings: DTT 0.03-2 mM, 24 h, dose dependent
Procedure: as §1, with “cells. […] Blot is also probed with Gluc antibody as well as alpha-tubulin antibody for equal loading.” for “cells.”
Western blot. Total cell lysates were prepared in lysis buffer containing 150 mM NaCl, 50 mM TRIS, pH 8.0, 1% NP-40, 0.5% deoxycholate, 0.1% SDS, and protease inhibitors (PI Complete; Boehringer Mannheim, Indianapolis, Ind.). Forty μg protein were electrophoresed in 12.5% SDS-polyacrylamide gels, and transferred to nitrocellulose membranes (Bio-Rad). […] Membranes were then incubated with horseradish peroxidase (HRP) conjugated to secondary antibodies: sheep anti-mouse IgG-HRP (1:10,000) or donkey anti-rabbit IgG-HRP (1:10,000) (Amersham Pharmacia Biotech, Piscataway, N.J.). For protein detection we used SuperSignal West Pico Chemiluminescent Substrate™ (Pierce, Rockford, Ill.).

[2] = tested on: spliced XBP-1 mRNA, 293T cells; test: Real-time qRT-PCR for spliced XBP-1 mRNA; type: cell-based, human
Procedure: as §1, with “cells. […] Blot is also probed with Gluc antibody as well as alpha-tubulin antibody for equal loading.” for “cells.”
ER stress: total RNA isolation, reverse transcription and real-time qPCR. 293T cells were plated at 1×10^6 cells/mL in a 12-well plate. Cells were treated with different concentrations of DTT (Sigma) for 4 h. Total RNA was isolated using the RNeasy mini kit (Quiagen, Valencia, Calif.) and concentration was determined by measuring the OD260 using a spectrophotometer (Bio-Rad, Hercules, Calif.). Reverse transcription was performed on 200 ng RNA (in 10 μl) at 37° C. for 60 min using an Omniscript reverse transcription kit (Quiagen). Two μL of each cDNA sample were used for real-time PCR. Biological triplicates were measured twice. The following primers were used: Forward 5′-[…]-3′ (SEQ ID NO: 10) and Reverse 5′-[…]-3′ (SEQ ID NO: 11). These primers were designed to span a 26 bp intron in the unspliced XBP1 mRNA [12]. […] The fold increase was calculated based on Ct values of treated cells relative to control non-infected and non-treated cells normalized to the values for GAPDH endogenous control.

[3] = tested on: secretory pathway (Gluc secretion), 293T cells; test: Blocking of secretory pathway: Gluc activity in conditioned medium of drug-treated cells; type: cell-based, human; settings: 24 h, 5 μg/ml BFA, 3 μg/ml monensin A, 10 μg/ml nocodazole, 5 μg/ml cytochalasin B
Procedure: Cells were treated for 24 h with different drugs which interfere with the secretory pathway. […] Scale bar, 10 μm. Luciferase activity. […] For Fluc detection, 450 μM Beetle D-luciferin (Molecular Imaging Products, Ann Arbor, Mich.) was added directly to the viable cells, in a 96 well plate and measured as above. The signal was measured for 10 sec and integrated over 2 sec in both cases. Blocking of secretory pathway.

[4] = tested on: secretory pathway (Gluc-YFP secretion); test: Gluc-YFP fusion: secretion and localization after BFA or nocodazole; type: cell-based, human; settings: for secretion of Gluc-YFP luciferase activity: cells expressing Gluc-YFP, conditioned medium 24 h after treatment
Procedure: Blocking of secretory pathway. […] Forty-eight h post-infection, cells were treated with either 5 μg/ml BFA, 3 μg/ml monensin A (MonA), 10 μg/ml nocodazole (Noc) or 5 μg/ml cytochalasin B (CytB) all obtained from Sigma.

[5] = tested on: secretory pathway (Gluc secretion); test: Bioluminescence from media of Gluc expressing cells treated with secretory pathway inhibitors (FIG. 11); type: cell-based
Text: Nocodazone disrupts microtubule function and BrefeldinA disrupts golgi function.
This confirms Gluc is being secreted the secretory pathway.

[6] = tested on: unfolded protein response (GRP78); test: Immunoblotting for GRP78, unfolded protein response (FIG. 12); type: cell-based; settings: cells treated with tunicamycin
Procedure: Immunobloting for GRP76 of protein lysates from cells not expressing Gluc in the absence (untreated) or presence of tunicamycin, an agent which upregulates the UPR, compared with untreated cells expressing the Gluc-YFP conjugate protein.
To assess the effect of Gluc expression on cell physiology and to ask if Gluc expression triggers an ER stress response and/or induces the unfolded protein response (UPR), cells were treated with tunicamycin, an agent which upregulates the UPR in the presence or absence of Gluc expression.

Compound | decrease of Gluc secretion into the conditioned medium [3] | secretion of Gluc-YFP luciferase activity [4] | bioluminescence from the media compared to untreated cells [5] | further results
O[C@H](CS)[C@H](O)CS (racemic) [DTT, dithiothreitol] | – | – | – | Gluc secretion in the conditioned medium over time ([1]; 1 mM DTT, real-time monitoring, started to recover after 4 h, normal level after 24 h): complete inhibition of secretion for the first 3 h; secretion of Gluc ([1]; DTT 0.03-2 mM, 4 h): decrease; amount of BiP (BiP, 293T cells): increased; extent of XBP-1 mRNA splicing ([2]; DTT 0.03-2 mM, 4 h, dose dependent): increased
C[C@H]1CCC/C=C/[C@@H]2C[C@H](O)C[C@H]2[C@H](O)/C=C/C(=O)O1 [BFA, brefeldinA] | about 90% | blocked to the same extent as for Gluc | reduced | localization of Gluc-YFP fusion protein ([4]; real-time confocal microscopy on live cells): trapped in the ER
C=C1[C@@H](C)[C@H]2[C@H](Cc3ccccc3)NC(=O)[C@]23OC(=O)/C=C/[C@H](O)CCC[C@@H](C)C/C=C/[C@H]3[C@@H]1O [cytochalasin B] | ~30% | – | – | –
CC[C@@]1([C@@H]2O[C@@H]([C@H]3O[C@@](O)(CO)[C@H](C)C[C@@H]3C)C[C@@H]2C)CC[C@H]([C@]2(C)CC[C@]3(C[C@H](O)[C@@H](C)[C@@H]([C@@H](C)[C@@H](OC)[C@H](C)C(=O)O)O3)O2)O1 [monensin A] | ~65% | – | – | –
COC(=O)Nc1nc2ccc(C(=O)c3cccs3)cc2[nH]1 [nocodazole] | ~75% | blocked to the same extent as for Gluc | reduced | –
tunicamycin | – | – | – | decrease in Gluc secretion ([1]; tunicamycin 3 μg/ml for 4 h): over 90%; expression of GRP78 [6]: detected; increase in spliced XBP-1 message ([2]; tunicamycin 3 μg/ml for 4 h): 9 fold
